{
  "source": "paper PMC3481155",
  "about": "“AhR activation underlies the CYP1A autoinduction by A-998679 in rats” (Frontiers in Genetics, 2012)",
  "key": {"CYP1A2": {"tested_on": "CYP1A2", "experiment": "CYP1A2 mRNA induction in primary human hepatocytes", "format": "cell-based", "settings": "24 h, dose-dependent", "description": "Rat hepatocytes were isolated in a perfusion procedure as described previously (Elliget and Kolaja, [1983]; Waring et al., [2001]). The beagle dog hepatocytes were isolated in the same manner, except for adjustment of flow rate and buffer volume to scale to liver size. Cells were plated at a seeding density of 1.0 × 10^6 cells per well on 6-well, collagen-type I coated plates (BD Biosciences, Bedford, MA) in hepatocyte plating medium (Celsis, Baltimore, MD). Cells were allowed to attach for 24 h in a 37°C humidified incubator with a 5% CO2 atmosphere and were dosed for 24 h (rat) or 48 h (dog) with vehicle control [0.1% DMSO (v/v)] or 10 μM A-998679 in fresh treatment media (Celsis hepatocyte incubation media) every 24 h. After the last incubation, cells were lysed in 1 ml of Qiazol (Qiagen) and stored at −80°C until RNA isolation. Cryopreserved human hepatocytes (donor designation Hu4198; Invitrogen Life Technologies, Carlsbad, CA) were thawed and plated according to the manufacturer's protocol and allowed to incubate for 24 h. […]\nRNA samples were diluted with RNase-free molecular biology grade water to a concentration of 20 ng/μl total RNA. […] Results were analyzed by calculating the fold change of CYP1A1 and/or CYP1A2 mRNA levels normalized to 28S rRNA (ΔΔ Ct) in compound treated cells or tissues compared to vehicle levels. […]"}, "rat Cyp 2A2": {"biological_target": "T1, rat Cyp 2A2 (Rattus norvegicus, UniProt P15149)", "T1 construct": "purchased BD Gentest; host or cells: baculovirus infected insect cells", "T1 sequence (P15149 whole entry, canonical isoform)": "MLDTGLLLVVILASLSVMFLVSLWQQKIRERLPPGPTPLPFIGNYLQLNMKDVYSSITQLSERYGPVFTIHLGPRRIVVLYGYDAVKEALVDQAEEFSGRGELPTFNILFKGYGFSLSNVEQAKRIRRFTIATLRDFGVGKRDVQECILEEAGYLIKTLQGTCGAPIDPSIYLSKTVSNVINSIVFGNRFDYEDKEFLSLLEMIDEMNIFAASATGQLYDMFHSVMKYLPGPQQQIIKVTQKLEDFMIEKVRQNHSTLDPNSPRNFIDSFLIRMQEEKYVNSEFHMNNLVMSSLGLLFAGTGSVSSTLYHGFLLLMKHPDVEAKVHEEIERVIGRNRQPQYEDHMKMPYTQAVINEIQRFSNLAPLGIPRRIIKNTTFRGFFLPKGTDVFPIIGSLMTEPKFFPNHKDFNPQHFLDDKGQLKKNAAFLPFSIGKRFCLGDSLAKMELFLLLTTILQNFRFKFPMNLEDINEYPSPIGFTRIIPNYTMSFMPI", "experiment": "Recombinant rat Cyp phenotype profiling, 2A2", "format": "in vitro ADME", "settings": "60 min", "description": "(§1) Identification of the drug metabolizing enzymes (DMEs) of A-998679 was studied in cDNA expressed recombinant enzymes prepared from baculovirus infected insect cells over-expressing rat Cyp isoforms (BD Gentest, Woburn, MA) as listed in Table 2. Incubations were conducted in duplicate using Supersomes. The incubation mixture contained 100 pmol/ml of enzymes, except for Cyp1a1 (200 pmol/ml), 0.1 or 0.21 μM of [^3H]A-998679 in 100 mM phosphate buffer (pH 7.4). Reactions were initiated with the addition of NADPH at a final concentration of 1 mM and incubated at 37°C for 60 min. At the end of the incubation period, the incubations were terminated by the addition of acetonitrile/ethanol (50/50, v/v) solution. Insect control samples lacking expressed enzyme were used as negative control. The degree of metabolism of A-998679 was assessed by percent of parent remaining using the radio-HPLC method described below.\n(§2) Radiolabeled components from the above assays were profiled following separation by HPLC with on line radioflow detector. The system consisted of an Agilent 1100 Series quaternary pump and autosampler connected to a Packard 500TR flow scintillation detector. The data were processed using the Radiomatic™ Flo-one® software v3.65. The scintillant (Perkin Elmer FLO-SCINT™ III) flow was maintained at 3 ml/min. […]"}, "rat Cyp 2C12": {"biological_target": "T2, rat Cyp 2C12 (Rattus norvegicus, UniProt P11510)", "T2 construct": "purchased BD Gentest; host or cells: baculovirus infected insect cells", "T2 sequence (P11510 whole entry)": "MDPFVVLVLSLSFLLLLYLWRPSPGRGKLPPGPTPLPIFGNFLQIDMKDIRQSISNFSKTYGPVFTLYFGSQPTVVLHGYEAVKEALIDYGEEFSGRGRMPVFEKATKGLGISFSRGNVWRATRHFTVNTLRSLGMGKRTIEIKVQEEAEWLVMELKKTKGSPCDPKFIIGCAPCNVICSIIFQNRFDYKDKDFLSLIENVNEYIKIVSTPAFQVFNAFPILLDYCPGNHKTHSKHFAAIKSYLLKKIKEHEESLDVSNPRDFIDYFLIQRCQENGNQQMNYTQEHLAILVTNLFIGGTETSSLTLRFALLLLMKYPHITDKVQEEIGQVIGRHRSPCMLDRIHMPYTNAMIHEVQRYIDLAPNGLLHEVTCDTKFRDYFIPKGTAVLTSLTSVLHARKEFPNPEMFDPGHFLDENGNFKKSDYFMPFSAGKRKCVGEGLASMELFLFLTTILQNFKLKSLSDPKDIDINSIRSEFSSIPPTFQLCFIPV", "experiment": "Recombinant rat Cyp phenotype profiling, 2C12", "format": "in vitro ADME", "settings": "60 min", "description": "as §1, §2"}, "rat Cyp 2C13": {"biological_target": "T3, rat Cyp 2C13 (Rattus norvegicus, UniProt P20814)", "T3 construct": "purchased BD Gentest; host or cells: baculovirus infected insect cells", "T3 sequence (P20814 whole entry)": "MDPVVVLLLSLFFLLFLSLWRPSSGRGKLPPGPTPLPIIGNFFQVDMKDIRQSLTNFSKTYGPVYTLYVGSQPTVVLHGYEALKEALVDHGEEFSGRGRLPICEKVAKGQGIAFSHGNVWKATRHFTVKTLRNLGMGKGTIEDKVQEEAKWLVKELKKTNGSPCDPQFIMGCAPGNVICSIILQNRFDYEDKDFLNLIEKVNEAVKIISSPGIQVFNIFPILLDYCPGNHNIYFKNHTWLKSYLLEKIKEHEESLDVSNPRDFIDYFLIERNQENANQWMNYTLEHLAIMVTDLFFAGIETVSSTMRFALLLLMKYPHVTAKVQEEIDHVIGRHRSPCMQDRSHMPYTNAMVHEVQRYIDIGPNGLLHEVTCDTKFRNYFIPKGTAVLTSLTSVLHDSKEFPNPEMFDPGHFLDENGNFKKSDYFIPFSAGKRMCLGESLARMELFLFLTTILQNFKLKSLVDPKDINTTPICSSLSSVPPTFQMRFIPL", "experiment": "Recombinant rat Cyp phenotype profiling, 2C13", "format": "in vitro ADME", "settings": "60 min", "description": "as §1, §2"}, "rat Cyp 2D2": {"biological_target": "T4, rat Cyp 2D2 (Rattus norvegicus, UniProt P10634)", "T4 construct": "purchased BD Gentest; host or cells: baculovirus infected insect cells", "T4 sequence (P10634 whole entry)": "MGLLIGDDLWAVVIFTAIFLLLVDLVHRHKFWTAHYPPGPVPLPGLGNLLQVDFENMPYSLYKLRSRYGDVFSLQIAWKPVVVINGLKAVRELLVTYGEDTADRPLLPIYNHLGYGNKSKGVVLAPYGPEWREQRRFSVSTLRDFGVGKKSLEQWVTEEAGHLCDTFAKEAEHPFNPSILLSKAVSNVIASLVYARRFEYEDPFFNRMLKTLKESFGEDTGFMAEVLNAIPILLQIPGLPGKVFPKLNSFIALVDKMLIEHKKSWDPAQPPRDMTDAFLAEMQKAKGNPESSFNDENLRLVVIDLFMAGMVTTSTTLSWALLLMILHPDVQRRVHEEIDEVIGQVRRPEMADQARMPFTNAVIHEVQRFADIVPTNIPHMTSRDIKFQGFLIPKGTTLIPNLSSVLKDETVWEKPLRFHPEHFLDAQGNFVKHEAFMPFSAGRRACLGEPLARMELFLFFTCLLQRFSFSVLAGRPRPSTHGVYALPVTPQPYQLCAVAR", "experiment": "Recombinant rat Cyp phenotype profiling, 2D2", "format": "in vitro ADME", "settings": "60 min", "description": "as §1, §2"}, "CYP2C9": {"biological_target": "T5, CYP2C9 (Homo sapiens, UniProt P11712)", "T5 construct": "from tissue; host or cells: human liver microsomes", "T5 sequence (P11712 whole entry)": "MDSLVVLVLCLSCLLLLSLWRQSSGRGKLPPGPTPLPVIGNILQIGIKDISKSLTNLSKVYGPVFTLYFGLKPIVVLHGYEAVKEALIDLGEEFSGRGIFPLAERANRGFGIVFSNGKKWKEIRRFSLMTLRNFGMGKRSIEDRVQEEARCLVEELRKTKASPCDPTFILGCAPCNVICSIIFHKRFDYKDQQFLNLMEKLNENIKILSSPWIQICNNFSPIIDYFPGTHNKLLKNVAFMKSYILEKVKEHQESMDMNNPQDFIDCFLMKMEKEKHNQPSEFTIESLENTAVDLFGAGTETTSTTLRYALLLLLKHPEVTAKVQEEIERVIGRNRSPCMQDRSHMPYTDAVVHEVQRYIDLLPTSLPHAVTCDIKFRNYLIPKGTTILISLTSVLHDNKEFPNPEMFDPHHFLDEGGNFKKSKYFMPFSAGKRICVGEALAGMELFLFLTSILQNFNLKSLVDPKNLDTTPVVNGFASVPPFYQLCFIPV", "experiment": "CYP inhibition evaluation in human liver microsomes, CYP2C9 (diclofenac)", "format": "in vitro ADME", "settings": "probe substrate diclofenac", "description": "Incubations were performed in human liver microsomes using probe substrate concentrations similar to their corresponding Km values. Enzyme activity was evaluated in the presence of various concentrations of A-998679. The incubations consisted of the test article at varying concentrations (0–30 μM), probe substrate (concentration ~Km, see Table A2), human liver microsomal protein and 1 mM NADPH in 50 mM phosphate buffer at pH 7.4. Relative quantitation of the metabolites was obtained by LC-MS/MS using an ABSciex (Foster City, CA) API3000 or API4000 Qtrap hybrid linear ion trap mass spectrometer equipped with a TurboIonspray source using either PerkinElmer series 200 pumps or Agilent 1100 series pump with a Leap autosampler. Analytes were separated using a Phenomenex Prodigy ODS(3) 5 μm, 50 × 2.0 mm column at 50°C, eluted and detected under the specific conditions listed in Tables A3, A4, and A5. The analyte to internal standard peak area ratios were determined using Analyst 1.4 software (Applied Biosytems, Carlsbad, CA). The peak area ratios observed in the presence of test article were compared to the vehicle control in order to determine percent activity. To determine the IC50, the data were plotted as Log [dose] μM vs. % inhibition, and analyzed with a sigmoidal dose-response (variable slope) fitting equation. […]"}},
  "data": [
    {"molecule": "N#Cc1cccc(-c2noc(-c3cccnc3)n2)c1", "note": "[A-998679, 3-(5-pyridin-3-yl-1,2,4-oxadiazol-3-yl) benzonitrile]", "values": [
      {"measurement": "lowest concentration inducing CYP1A2 mRNA", "setting": "CYP1A2", "result": 3, "unit": "µM"},
      {"measurement": "% parent remaining", "setting": "rat Cyp 2A2; recombinant rat Cyp 2A2, 0.10 μM", "result": 90.2, "unit": "%"},
      {"measurement": "% parent remaining", "setting": "rat Cyp 2A2; recombinant rat Cyp 2A2, 0.21 μM", "result": 77.8, "unit": "%"},
      {"measurement": "% parent remaining", "setting": "rat Cyp 2C12; recombinant rat Cyp 2C12, 0.10 μM", "result": 100, "unit": "%"},
      {"measurement": "% parent remaining", "setting": "rat Cyp 2C12; recombinant rat Cyp 2C12, 0.21 μM", "result": 100, "unit": "%"},
      {"measurement": "% parent remaining", "setting": "rat Cyp 2C13; recombinant rat Cyp 2C13, 0.10 μM", "result": 100, "unit": "%"},
      {"measurement": "% parent remaining", "setting": "rat Cyp 2C13; recombinant rat Cyp 2C13, 0.21 μM", "result": 100, "unit": "%"},
      {"measurement": "% parent remaining", "setting": "rat Cyp 2D2; recombinant rat Cyp 2D2, 0.10 μM", "result": 100, "unit": "%"},
      {"measurement": "% parent remaining", "setting": "rat Cyp 2D2; recombinant rat Cyp 2D2, 0.21 μM", "result": 98.1, "unit": "%"},
      {"measurement": "IC50", "setting": "CYP2C9", "result": "> 30", "unit": "µM"}
    ]}
  ]
}
